Assay results taken from patent publication US20100129430A1, “LIPOSOME DRUG CARRIERS WITH PH-SENSITIVITY” (priority 2008, published 2010).

What was measured:
pKa of lipid headgroups = type: physicochemical; conditions: lowest value that arranges all release-rate data points in a straight line
Experimental: The Zeta potential of liposomes containing different fractions of the titratable domain-forming lipid DSPA was measured in phosphate buffer at different pH values (7.4, 5.5, and 4.0) using a Zetasizer ZS90 (Malvern instruments, Worcestershire, UK). Measurements were performed in 10 mM PBS with no salt. For these measurements, liposomes (1 mM total lipid) were prepared without grafted PEG-chains on their surface to allow for closer approach of the plane of shear to the physical surface of lipid membranes.
For all lipid fractions, the rate of content release attributed to discontinuities at the interfacial boundaries is linearly proportional to the square root of protonated DSPA lipids and therefore proportional to the total perimeter of the discontinuities' interface (open symbols).
This deviation of the pKa value can be attributed to several factors. First, the proposed model of small, circular domains is certainly an oversimplification. Second, because the apparent pKa of PA should depend on the surface charge density, the values of apparent pKa should be composition-dependent.

[1] = reported value; cited from earlier work

pKa used to calculate the fraction of protonated DSPA lipids (pKa of lipid headgroups): 4.5
Substance: phosphatidic acid
pKa [1]: 4.0
